The values below are quoted from earlier work in publication PMC3559838 (PLoS ONE, 2013).

Data set [1] deals with human A2780 ovarian cancer cells. Set-up: method as in Plumb et al., 2003; Investigator's Brochure, 2004. As to conditions: A2780 xenografts, 10 mg/kg/day IP once daily for 7 days; ref Plumb et al., 2003; Investigator's Brochure, 2004; cited from earlier work.
Data set [2] has as its system HCT116 colon cancer cells. More on the design: method as in Plumb et al., 2003; Investigator's Brochure, 2004. As to conditions: HCT116 xenografts, 40 mg/kg/day IP once daily for 7 days; ref Plumb et al., 2003; Investigator's Brochure, 2004; cited from earlier work.
On the set-up of data set [3]: method as in Investigator's Brochure, 2004. As to conditions: rats, 100 mg/kg/day, both formulations; ref Investigator's Brochure, 2004; cited from earlier work.

For `O=C(/C=C/c1cccc(S(=O)(=O)Nc2ccccc2)c1)NO` [Belinostat, N-hydroxy-3-(phenylsulphamoylphenyl) acrylamide], the tumor growth entry is recorded as “Delay of tumor growth was observed” in data set [1] and “Growth inhibition was also observed” in data set [2]. Further, the systemic effects entry in data set [3] is listed as “mild”.
